What was measured:
[1] = biological target: T1, human orexin 1 receptor (Homo sapiens, UniProt O43613); assay: Calcium accumulation in cells (FLIPR), antagonism of orexin A, human orexin 1 receptor; type: cell-based; conditions: for Ki: calcium accumulation, antagonism of orexin A, Cheng-Prusoff corrected, read-out: FLIPR hOx1R Ki; for inhibition at 10 µM: measured at a concentration of 10 μM of compound, read-out: FLIPR hOx1R % inhibition
T1 construct: expressed in transfected cells
T1 sequence (O43613 1-425): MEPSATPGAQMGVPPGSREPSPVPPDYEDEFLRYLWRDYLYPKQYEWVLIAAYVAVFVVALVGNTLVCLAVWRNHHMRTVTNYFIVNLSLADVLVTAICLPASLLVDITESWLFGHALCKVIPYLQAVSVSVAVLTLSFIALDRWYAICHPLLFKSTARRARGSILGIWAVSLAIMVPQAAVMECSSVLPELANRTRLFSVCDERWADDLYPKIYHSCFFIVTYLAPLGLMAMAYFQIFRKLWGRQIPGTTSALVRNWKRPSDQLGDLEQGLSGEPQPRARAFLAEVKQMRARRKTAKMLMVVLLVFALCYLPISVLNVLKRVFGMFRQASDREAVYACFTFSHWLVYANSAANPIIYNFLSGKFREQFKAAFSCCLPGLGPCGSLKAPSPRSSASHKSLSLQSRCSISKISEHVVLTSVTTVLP

[2] = biological target: T1, human orexin 1 receptor; assay: Radioligand binding assay ([3H]-SB649868 competition), human orexin 1 receptor; conditions: radioligand [3H]-SB649868; read-out: Binding hOx1R Kd
Description: (§1) Radioligand Binding Assay
(§2) For crude cell membrane preparations, cells (CHO, Chinese hamster ovary or HEK, human embryonic kidney) expressing human orexin 1 or human orexin 2 receptors, were washed with HEPES (10 mM, pH 7.5), scraped off the culture plates with the same buffer, and centrifuged at 4° C. for 5 min at 2500×g. The cell pellet was either stored at −80° C. or used directly. Before the experiments, cell membranes were re-suspended in binding assay buffer (10 mM HEPES, 0.5% (w/v) bovine serum albumin, pH 7.5) by homogenisation with a Polytron homogeniser at 50 Hz for 20 s. Cell membranes were also used as made available by commercial providers.
(§3) Bound radioactivity was measured, and data were analysed with the program XLFIT or Graphpad Prism. Protein concentration was determined according to the Bradford/BioRad Protein Assay Kit.
(§4) In competition experiments, cell homogenates (150 μl) were incubated in assay buffer (10 mM HEPES, pH 7.5, 0.5% (w/v) bovine serum albumin, 5 mM MgCl2, 1 mMCaCl2, and tween 0.05%) for 1 h at room temperature with about 1 nM of the radioligand [^3H]-SB649868, 66 Ci/mmole, 50 μl), and with various concentrations of compounds of the invention (50 μl) in triplicates; non-specific binding was determined in the presence of almorexant (10 μM). Reactions were terminated by vacuum filtration, 3 washes of ice cold wash buffer (Tris-HCl pH 7.4/10 mM, with NaCl 154 mM). Competition data is expressed in Table 1 as Kd [μM].

[3] = biological target: T2, human orexin 2 receptor (Homo sapiens, UniProt O43614); assay: Radioligand binding assay ([3H]-SB649868 competition), human orexin 2 receptor; conditions: radioligand [3H]-SB649868; read-out: Binding hOx2R Kd
T2 construct: expressed in transfected cells
T2 sequence (O43614 1-444): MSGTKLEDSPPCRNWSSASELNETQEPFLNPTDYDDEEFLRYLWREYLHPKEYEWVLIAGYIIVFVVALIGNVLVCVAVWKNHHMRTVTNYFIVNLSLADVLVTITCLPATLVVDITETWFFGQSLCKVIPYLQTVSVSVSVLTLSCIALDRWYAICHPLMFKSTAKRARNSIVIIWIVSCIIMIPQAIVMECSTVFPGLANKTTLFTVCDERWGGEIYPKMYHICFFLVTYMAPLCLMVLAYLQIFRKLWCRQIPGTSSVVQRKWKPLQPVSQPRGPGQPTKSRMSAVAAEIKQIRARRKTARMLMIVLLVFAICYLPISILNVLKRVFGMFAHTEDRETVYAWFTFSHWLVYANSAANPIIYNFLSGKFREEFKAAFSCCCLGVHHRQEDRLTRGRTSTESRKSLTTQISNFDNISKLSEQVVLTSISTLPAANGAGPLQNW
Description: as §1, §2, §3, §4

[4] = biological target: T2, human orexin 2 receptor; assay: Calcium accumulation in cells (FLIPR), antagonism of orexin A, human orexin 2 receptor; type: cell-based; conditions: for Ki: calcium accumulation, antagonism of orexin A, Cheng-Prusoff corrected, read-out: FLIPR hOx2R Ki

SMILES	Ki [1] [nM]	Kd [2] [nM]	Kd [3] [nM]	Ki [4] [nM]	inhibition at 10 µM [1] [%]	inhibition at 10 µM ([4]; measured at a concentration of 10 μM of compound, read-out: FLIPR hOx2R % inhibition) [%]
COc1cc(C)nc(N2CC[C@]3(CCCN(Cc4c[nH]c5ccccc45)C3=O)C2)n1 (single isomer, unassigned) [Example 7.9]	10	12	12	1.9	–	–
COc1cc(C)nc(N2CC[C@@]3(CCCN(Cc4c[nH]c5ccccc45)C3=O)C2)n1 (single isomer, unassigned) [Example 7.10]	139	750	238	14	–	–
Cc1cc(C)nc(N2CCC3(CC2)NCCN(Cc2c[nH]c4ccc(F)cc24)C3=O)n1 [Example 1.4, 9-(4,6-Dimethylpyrimidin-2-yl)-4-((5-fluoro-1H-indol-3-yl)methyl)-1,4,9-triazaspiro[5.5]undecan-5-one]	601	770	17	6	–	–
COc1cccc(-c2nn(C)nc2CN2CCNC3(CCN(c4nc(C)cc(C)n4)CC3)C2=O)c1 [Example 1.5, 9-(4,6-Dimethylpyrimidin-2-yl)-4-((5-(3-methoxyphenyl)-2-methyl-2H-1,2,3-triazol-4-yl)methyl)-1,4,9-triazaspiro[5.5] undecan-5-one]	1490	928	31	7	–	–
COc1cc(C)nc(N2CCC3(CC2)NCCN(Cc2c[nH]c4ccccc24)C3=O)n1 [Example 1.8, 4-((1H-Indol-3-yl)methyl)-9-(4-methoxy-6-methylpyrimidin-2-yl)-1,4,9-triazaspiro[5.5] undecan-5-one]	906	679	19	8	–	–
COc1cccc(-c2ocnc2CN2CCNC3(CCN(c4nc(C)cc(C)n4)CC3)C2=O)c1 [Example 1.9, 9-(4,6-Dimethylpyrimidin-2-yl)-4-((5-(3-methoxyphenyl)oxazol-4-yl)methyl)-1,4,9-triazaspiro[5.5] undecan-5-one]	230	397	25	4	–	–
COc1cccc(-c2oc(C)nc2CN2CCNC3(CCN(c4nc(C)cc(C#N)n4)CC3)C2=O)c1 [Example 1.16, 2-(4-((5-(3-Methoxyphenyl)-2-methyloxazol-4-yl)methyl)-5-oxo-1,4,9-triazaspiro[5.5]undecan-9-yl)-6-methylpyrimidine-4-carbonitrile]	–	–	188	31	35	–
COc1cccc(-c2sc(C)nc2CN2CCNC3(CCN(c4nc(C)cc(C#N)n4)CC3)C2=O)c1 [Example 1.25, 2-(4-((5-(3-Methoxyphenyl)-2-methylthiazol-4-yl)methyl)-5-oxo-1,4,9-triazaspiro[5.5]undecan-9-yl)-6-methylpyrimidine-4-carbonitrile]	–	–	394	76	31	–
COc1cncc(-c2cn(C)nc2CN2CCNC3(CCN(c4nc(C)cc(C)n4)CC3)C2=O)c1 [Example 1.55, 9-(4,6-Dimethyl-pyrimidin-2-yl)-4-((4-(5-methoxypyridin-3-yl)-1-methyl-1H-pyrazol-3-yl)methyl)-1,4,9-triazaspiro[5.5] undecan-5-one]	–	5870	162	16	–	–
COCc1noc(-c2ccccc2CN2CCNC3(CCN(c4nc(C)cc(C)n4)CC3)C2=O)n1 [Example 1.63, 9-(4,6-dimethyl-pyrimidin-2-yl)-4-(2-(3-(methoxymethyl)-1,2,4-oxadiazol-5-yl)benzyl)-1,4,9-triazaspiro[5.5] undecan-5-one]	4080	–	252	46	–	–
COCc1cccc(-c2nn(C)nc2CN2CCNC3(CCN(c4nc(C)cc(C)n4)CC3)C2=O)c1 [Example 1.76, 9-(4,6-dimethyl-pyrimidin-2-yl)-4-((5-(3-(methoxy-methyl)phenyl)-2-methyl-2H-1,2,3-triazol-4-yl)methyl)-1,4,9-triazaspiro[5.5] undecan-5-one]	1640	–	174	86	–	–
Cc1cc(C)nc(N2CCC3(CC2)OCCN(Cc2n[nH]nc2-c2ccccc2)C3=O)n1 [Example 2.14, 9-(4,6-Dimethylpyrimidin-2-yl)-4-((5-phenyl-2H-1,2,3-triazol-4-yl)methyl)-1-oxa-4,9-diazaspiro[5.5]undecan-5-one]	2720	–	241	50	–	–
Cc1cc(C)nc(N2CCC3(CCN(Cc4c[nH]c5ccccc45)C3=O)CC2)n1 [Example 3.1, 2-((1H-Indol-3-yl)methyl)-8-(4,6-dimethylpyrimidin-2-yl)-2,8-diazaspiro[4.5]decan-1-one]	1900	–	228	32	–	–
COc1cc(C)nc(N2CCC3(CCN(Cc4c[nH]c5ccccc45)C3=O)CC2)n1 [Example 3.18, 2-(1H-Indol-3-ylmethyl)-8-(4-methoxy-6-methyl-pyrimidin-2-yl)-2,8-diaza-spiro[4.5]decan-1-one]	1240	–	1030	37	–	–
COc1cc(C)nc(N2CCC3(CCN(Cc4n[nH]c5ccccc45)C3=O)CC2)n1 [Example 3.21, 2-((1H-indazol-3-yl)methyl)-8-(4-methoxy-6-methylpyrimidin-2-yl)-2,8-diazaspiro[4.5]decan-1-one]	1010	–	699	117	–	–
N#Cc1cccc(N2CCC3(CC2)COCC(=O)N3Cc2cccc3[nH]ccc23)n1 [Example 8.17, 6-(1-((1H-Indol-4-yl)methyl)-2-oxo-4-oxa-1,9-diazaspiro[5.5]undecan-9-yl)picolinonitrile]	–	–	–	584	40	–
N#Cc1ccnc(N2CCC3(CC2)COCC(=O)N3Cc2cccc3[nH]ccc23)n1 [Example 8.18, 2-(1-((1H-Indol-4-yl)methyl)-2-oxo-4-oxa-1,9-diazaspiro[5.5]undecan-9-yl)pyrimidine-4-carbonitrile]	–	–	–	1010	25	–
Cc1ccnc(N2CCC3(CC2)COCC(=O)N3Cc2cccc3[nH]ccc23)n1 [Example 8.19, 1-((1H-Indol-4-yl)methyl)-9-(4-methylpyrimidin-2-yl)-4-oxa-1,9-diazaspiro[5.5]undecan-2-one]	–	–	–	697	28	–
O=C1OCC2(CCN(c3cnc4ccccc4n3)CC2)N1Cc1c[nH]c2ccccc12 [Example 8.21]	–	–	–	480	33	–
Cc1cncc(N2CCC3(CC2)COC(=O)N3Cc2c[nH]c3ccccc23)n1 [Example 8.23, 1-((1H-Indol-3-yl)methyl)-8-(6-methylpyrazin-2-yl)-3-oxa-1,8-diazaspiro[4.5]decan-2-one]	–	–	–	–	< 10	20
Cc1cc(C)nc(N2CCC3(CC2)COC(=O)N3Cc2c[nH]c3ccccc23)n1 [Example 8.24, 1-((1H-Indol-3-yl)methyl)-8-(4,6-dimethylpyrimidin-2-yl)-3-oxa-1,8-diazaspiro[4.5]decan-2-one]	–	–	–	448	21	–
Cc1cncc(N2CCC3(CC2)COC(=O)N3Cc2cccc3[nH]ccc23)n1 [Example 8.25, 1-((1H-Indol-4-yl)methyl)-8-(6-methylpyrazin-2-yl)-3-oxa-1,8-diazaspiro[4.5]decan-2-one]	–	–	–	675	< 10	–
O=C1CCC2(CCN(c3cnc4ccccc4n3)C2)N1Cc1cccc2[nH]ccc12 (stereo not shown) [Example 9.1]	666	–	–	1380	–	–
